Where “and” joins values, the source holds several entries; their conditions need not be identical. Equal values may be shown once.
Details: Liquid; for mass density: Vibrating tube method

CCCC[n+]1cccc(C)c1.O=S(=O)([N-]S(=O)(=O)C(F)(F)F)C(F)(F)F
Details | viscosity
278.15 K, 101.33 kPa, Concentric cylinders viscometry | 201 mPa·s
283.15 K, 101.33 kPa, Concentric cylinders viscometry | 146.3 mPa·s
288.13 K, 101.33 kPa, Vibrating wire viscometry | 107.09 mPa·s
288.15 K, 101.33 kPa, Concentric cylinders viscometry | 109.5 mPa·s
292.95 K, 101.33 kPa, Vibrating wire viscometry | 83.24 mPa·s
293.15 K, 101.33 kPa, Concentric cylinders viscometry | 84.1 mPa·s
296.3 K, 101.33 kPa, Vibrating wire viscometry | 71.15 mPa·s
298.15 K, 101.33 kPa, Concentric cylinders viscometry | 65.6 mPa·s
298.25 K, 101.33 kPa, Vibrating wire viscometry | 65 mPa·s and 64.91 mPa·s
300.55 K, 101.33 kPa, Vibrating wire viscometry | 58.21 mPa·s
302.98 K, 101.33 kPa, Vibrating wire viscometry | 52.92 mPa·s
303.15 K, 101.33 kPa, Concentric cylinders viscometry | 52.31 mPa·s
303.15 K, 10000 kPa, Falling or rolling sphere viscometry | 58.6 mPa·s
303.15 K, 15000 kPa, Falling or rolling sphere viscometry | 62.3 mPa·s
303.15 K, 25000 kPa, Falling or rolling sphere viscometry | 70.4 mPa·s
303.15 K, 50000 kPa, Falling or rolling sphere viscometry | 94.7 mPa·s
303.15 K, 75000 kPa, Falling or rolling sphere viscometry | 126.3 mPa·s
307.84 K, 101.33 kPa, Vibrating wire viscometry | 43.69 mPa·s
308.15 K, 101.33 kPa, Concentric cylinders viscometry | 42.36 mPa·s
310.19 K, 101.33 kPa, Vibrating wire viscometry | 40.27 mPa·s
313.15 K, 101.33 kPa, Concentric cylinders viscometry | 35.01 mPa·s
313.15 K, 10000 kPa, Falling or rolling sphere viscometry | 40.1 mPa·s
313.15 K, 15000 kPa, Falling or rolling sphere viscometry | 42.3 mPa·s
313.15 K, 25000 kPa, Falling or rolling sphere viscometry | 47.2 mPa·s
313.15 K, 50000 kPa, Falling or rolling sphere viscometry | 61.7 mPa·s
313.15 K, 75000 kPa, Falling or rolling sphere viscometry | 80.5 mPa·s
313.15 K, 100000 kPa, Falling or rolling sphere viscometry | 104.9 mPa·s
318.15 K, 101.33 kPa, Concentric cylinders viscometry | 29.01 mPa·s
323.15 K, 101.33 kPa, Concentric cylinders viscometry | 24.47 mPa·s
323.15 K, 10000 kPa, Falling or rolling sphere viscometry | 27.2 mPa·s
323.15 K, 15000 kPa, Falling or rolling sphere viscometry | 28.7 mPa·s

101.33 kPa
Details | mass density [kg/m3]
278.15 K | 1431.3
283.15 K | 1426.4
288.15 K | 1421.6
293.15 K | 1416.9
298.15 K | 1412.3
303.15 K | 1407.8
308.15 K | 1403.2
313.15 K | 1398.7
318.15 K | 1394.3
323.15 K | 1389.8
